Results: patent publication US6403607B1, “Sulfonamide derivatives and drugs containing the same as the active ingredient” (priority 1998, dated 2002)
Converted amounts (≈) assume the structure as drawn. Read-outs that look alike come from different tables or passages of the source.

Experiments:
gastric acid secretion = test: Acid-secretion suppression (pyloric ligation); assay type: in vivo, Rats; conditions: pyloric region ligated, drug to the duodenum, gastric juice after four hours, total acidity by titration; dose not given
Description: Acid-secretion Suppression Rats were fasted for 24 hours and the abdomens of the rats were dissected under anesthesia with ether. The pyloric region was ligated and a drug was administered to the duodenum. After four hours, the stomach was removed and the gastric juice was collected to evaluate the acid-secretion suppresssing effects by measuring the total acidity of the gastric juice through titration.

Helicobacter pylori = test: Anti-Helicobacter-pylori action (agar plate dilution MIC); assay type: cell-based; conditions: clinically isolated 10 bacterial strains, agar plate dilution method
Description: Anti-Helicobacter-pylori Action
Using clinically isolated 10 bacterial strains, the minimum inhibitory concentration (MIC) was measured according to the agar plate dilution method.

[1] = system: ethanol ulcer in the gland gastric region; test: Ethanol ulcer; assay type: in vivo; conditions: rats fasted 24 hours, drug oral, 99.5% ethanol 1 ml/rat after one hour, size of ulcer one hour later; dose not given
Description: Ethanol Ulcer Rats were fasted for 24 hours and orally administered with a drug. After one hour, 99.5% ethanol (1 ml/rat) was fed through oral administration. After one hour of ethanol administration, the abdomens of the rats were dissected and the size of ulcer in the gland gastric region was measured for each rat.

H/K-ATPase = H/K-ATPase (Oryctolagus cuniculus, UniProt P27112); test: H/K-ATPase inhibition; assay type: biochemical; conditions: pH 7.4, H/K-ATPase from rabbit gastric mucous membrane
Sequence of H/K-ATPase (P27112 whole entry): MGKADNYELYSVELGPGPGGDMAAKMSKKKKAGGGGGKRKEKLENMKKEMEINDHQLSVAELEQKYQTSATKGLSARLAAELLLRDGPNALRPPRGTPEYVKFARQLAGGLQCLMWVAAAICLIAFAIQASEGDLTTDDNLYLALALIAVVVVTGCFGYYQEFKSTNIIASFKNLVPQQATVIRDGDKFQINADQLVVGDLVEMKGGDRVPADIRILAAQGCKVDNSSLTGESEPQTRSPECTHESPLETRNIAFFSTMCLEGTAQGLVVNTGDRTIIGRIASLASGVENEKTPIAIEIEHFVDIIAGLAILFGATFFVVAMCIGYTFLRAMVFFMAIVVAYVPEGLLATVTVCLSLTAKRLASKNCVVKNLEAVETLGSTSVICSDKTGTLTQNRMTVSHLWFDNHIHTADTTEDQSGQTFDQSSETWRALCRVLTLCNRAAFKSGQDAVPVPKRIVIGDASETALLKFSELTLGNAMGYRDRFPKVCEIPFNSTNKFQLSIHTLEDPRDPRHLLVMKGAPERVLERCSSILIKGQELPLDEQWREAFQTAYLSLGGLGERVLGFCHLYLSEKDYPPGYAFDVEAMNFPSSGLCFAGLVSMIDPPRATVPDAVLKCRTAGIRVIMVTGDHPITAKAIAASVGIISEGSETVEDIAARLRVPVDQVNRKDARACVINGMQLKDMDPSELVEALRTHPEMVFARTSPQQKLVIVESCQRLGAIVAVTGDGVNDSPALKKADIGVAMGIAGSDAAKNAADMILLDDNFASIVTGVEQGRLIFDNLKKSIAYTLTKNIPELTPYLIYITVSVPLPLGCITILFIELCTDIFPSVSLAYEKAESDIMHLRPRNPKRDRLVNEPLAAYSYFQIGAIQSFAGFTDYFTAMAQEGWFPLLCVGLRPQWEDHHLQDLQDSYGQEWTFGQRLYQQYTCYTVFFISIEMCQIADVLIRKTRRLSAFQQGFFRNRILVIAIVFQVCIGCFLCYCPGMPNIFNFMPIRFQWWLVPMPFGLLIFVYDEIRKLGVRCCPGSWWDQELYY
Sequence of H/K-ATPase (P18597 whole entry partner): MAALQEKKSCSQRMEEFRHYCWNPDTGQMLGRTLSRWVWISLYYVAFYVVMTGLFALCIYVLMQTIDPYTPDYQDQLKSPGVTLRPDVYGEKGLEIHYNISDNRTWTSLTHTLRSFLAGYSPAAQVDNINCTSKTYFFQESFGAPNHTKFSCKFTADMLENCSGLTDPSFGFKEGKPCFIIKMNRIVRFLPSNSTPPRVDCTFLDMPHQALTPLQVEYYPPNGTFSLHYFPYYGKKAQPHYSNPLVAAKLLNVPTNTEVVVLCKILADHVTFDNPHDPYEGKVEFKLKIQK
Description: H/K-ATPase Inhibition The inhibitory effect was measured under pH 7.4, by using H/K-ATPase isolated and purified from the rabbit gastric mucous membrane.

rat red blood cell = test: Hemolytic action; assay type: cell-based; conditions: 10% rat red blood cell stock, 1% DMSO containing saline, 30 minutes at 37° C., absorbance 540 nm
Description: Hemolytic Action […] After incubation for 30 minutes at, 37° C., the mixture was centrifugally separated and the supernatant was obtained. The absorbance (540 nm) of the supernatant was measured. The hemolysis ratio was calculated.

[2] = Helicobacter pylori, read-out: MIC

| SMILES | Suppression (gastric acid secretion) [%] | MIC (Helicobacter pylori) [µg/mL] | Suppression [1] [%] | IC50 (H/K-ATPase) [nM] | MIC (Helicobacter pylori; [2]) [µg/mL] | HC50 (rat red blood cell) [µg/mL] |
| --- | --- | --- | --- | --- | --- | --- |
| NCCCCCN(c1ccccc1NCCOc1ccc(Cl)cc1)S(=O)(=O)c1ccc(Cl)cc1 [Example 13, N-(5-Aminopenthyl)-N-(4-chlorobenzenesulfonyl)-N′-[2-(4-chlorophenoxy)ethyl]-o-phenylenediamine] | 82 | 25 to 50 | – | – | – | – |
| CCCCS(=O)(=O)N(CCOCCN)c1ccccc1NCCOc1ccc(Cl)cc1 [Example 21] | 76 | – | 99 | 49400 | 50 to 100 (≈ 106 to 213 µM) | 71.1 |
| CC(C)S(=O)(=O)N(CCOCCN)c1ccccc1NCCOc1ccc(Cl)cc1 [Example 25, N-[2-(2-Amino)ethoxyethyl]-N-(2-propanesulfonyl)-N′-[2-(4-chlorophenoxy)ethyl]-o-phenylenediamine] | – | – | – | 140000 | – | 120 |
| CCCCCCCCS(=O)(=O)N(CCOCCN)c1ccccc1NCCOc1ccc(Cl)cc1 [Example 26, N-[2-(2-Amino)ethoxyethyl]-N-(1-octanesulfonyl)-N′-[2-(4-chlorophenoxy)ethyl]-o-phenylenediamine] | 82 | – | 98 | 2100 | – | – |
| NCCOCCN(c1ccccc1NCCOc1ccc(Cl)cc1)S(=O)(=O)c1ccc(Br)cc1 [Example 43, N-[2-(2-Amino)ethoxyethyl]-N-(4-bromobenzenesulfonyl)-N′-[2-(4-chlorophenoxy)ethyl]-o-phenylenediamine] | 80 | – | 78 | – | – | >100 |
| NCCOCCN(c1ccccc1NCCOc1ccc(Cl)cc1)S(=O)(=O)c1ccc(I)cc1 [Example 45, N-[2-(2-Amino)ethoxyethyl]-N-(4-iodobenzenesulfonyl)-N′-[2-(4-chlorophenoxy)ethyl]-o-phenylenediamine] | 80 | – | – | – | – | – |
| NCCOCCN(c1ccccc1NCCCOc1ccc(Cl)cc1)S(=O)(=O)c1ccc(Cl)cc1 [Example 61, N-[2-(2-Amino)ethoxyethyl]-N-(4-chlorobenzenesulfonyl)-N′-[3-(4-chlorophenoxy)propyl]-o-phenylenediamine] | 87 | – | – | – | – | – |
| CN(CCOc1ccc(Cl)cc1)c1ccccc1N(CCOCCN)S(=O)(=O)c1ccc(Cl)cc1 [Example 68] | 83 | – | 94 | – | – | – |
| NCCOCCN(c1ccccc1N(CCOc1ccc(Cl)cc1)Cc1ccccc1)S(=O)(=O)c1ccc(Cl)cc1 [Example 70, N-[2-(2-Amino)ethoxyethyl]-N-(4-chlorobenzenesulfonyl)-N′-benzyl-N′-[2-(4-chlorophenoxy)ethyl]-o-phenylenediamine] | 81 | – | 96 | 1100 | 6.25 to 12.5 (≈ 10.2 to 20.3 µM) | – |
| O=S(=O)(c1ccc(Cl)cc1)N(CCC1CCCCN1)c1cccnc1NCCNc1ccc(Cl)cc1 (centres unmarked) [Example 95] | 90 | – | 99 | – | – | – |
| NCCOCCN(c1ccccc1N1CCN(c2ccc(Cl)cc2)CC1)S(=O)(=O)c1ccc(Cl)cc1 [Example 131, 2-[4-(4-Chlorophenyl)-1-piperazino]-1-[N-[2-(2-aminoethoxy)ethyl]-N-(4-chlorobenzenesulfonyl)]aminobenzene] | 89 | – | – | – | – | – |
| NCCOCCN(c1ccccc1N1CCCN(c2ccc(Cl)cc2)CC1)S(=O)(=O)c1ccc(Cl)cc1 [Example 134, 2-[4-(4-Chlorophenyl)-1-homopiperazino]-1-[N-[2-(2-aminoethoxy)ethyl]-N-(4-chlorobenzenesulfonyl)]aminobenzene] | 87 | – | 98 | – | – | – |
| NCCOCCN(c1cccnc1N1CCN(c2ccc(Cl)cc2)CC1)S(=O)(=O)c1ccc(Cl)cc1 [Example 137, 2-[4-(4-Chlorophenyl)-1-piperazino]-3-[N-[2-(2-aminoethoxy)ethyl]-N-(4-chlorobenzenesulfonyl)]aminopyridine] | 76 | – | – | – | – | – |
| NCCOCCN(c1cccc2c1N(CCOc1ccc(Cl)cc1)CCC2)S(=O)(=O)c1ccc(Cl)cc1 [Example 140, 8-[N-[2-(2-Aminoethoxy)ethyl]-N-(4-chlorobenzenesulfonyl)]amino-1-[2-(4-chlorophenoxy)ethyl]-1,2,3,4-tetrahydroquinone] | 85 | – | 94 | 2000 | – | – |
